Results taken from PubChem BioAssay AID588371 (Southern Research Specialized Biocontainment Screening …, 2011).
Values joined by “and” are separate entries in the source; they are usually repeats but may differ in a detail not shown here. Equal values may be shown once. Results filed as inconclusive are left out. Active and inactive are the calls of the source. How the calls were made is not given here.

Tested on: West Nile virus-infected cells, antiviral inhibition
Assay: WNV inhibition in infected cells – cell-based, EC_1, probe candidates, dose response (AID 588371)
Settings: not given

Row | IC50 | Structure (SMILES)
1 | 2.73 µM | O=C(CSc1nc2ccccc2c(=O)n1-c1cc(Cl)cc(Cl)c1)Nc1ccc2c(c1)CCC2
2 | 9.17 µM and 11.7 µM | O=C(CSc1nc2ccccc2c(=O)n1-c1ccccc1)Nc1ccc2c(c1)CCC2
3 | 8.09 µM | O=C(CSc1nc2ccccc2c(=O)n1-c1ccc(Cl)c(Cl)c1)Nc1ccc2c(c1)CCC2
4 | 16.5 µM | O=C(CSc1nc2cccc(F)c2c(=O)n1-c1cc(F)c(F)c(F)c1)Nc1ccc2c(c1)CCC2

Tested on: not listed separately
Assay: as above
Settings: West Nile virus-infected cells, antiviral inhibition; at 50 µM (top of the series)

Row | Structure (SMILES) | inhibition
5 | Cc1cnc(NC(=O)CSc2nc3ccccc3c(=O)n2-c2ccccc2)s1 | -1.61% (inactive)
6 | O=C(CSc1nc2cccc(F)c2c(=O)n1-c1ccc(Cl)c(F)c1)Nc1ccc2c(c1)CCC2 | -1.63% (inactive)
7 | O=C(CSc1nc2ccccc2c(=O)n1-c1ccccc1)Nc1nc(-c2ccccc2)cs1 | 0.7% (inactive)
8 | O=C(CSc1nc2cccc(F)c2c(=O)n1-c1ccccc1)Nc1ccc2ncsc2c1 | 1.43% (inactive)
9 | O=C(CSc1nc2cccc(F)c2c(=O)n1-c1ccc(F)c(F)c1)Nc1ccc2c(c1)CCC2 | 1.72% (inactive)
10 | O=C(CCSc1nc2cccc(F)c2c(=O)n1-c1cc(F)c(F)c(F)c1)Nc1ccc2c(c1)CCC2 | 9.08% (inactive)
11 | O=C(CSc1nc2cccc(F)c2c(=O)n1-c1ccccc1)Nc1ccc2c(c1)CCC2 | -0.4% (inactive)
12 | O=C(CSc1nc2ccccc2c(=O)n1-c1cc(Cl)cc(Cl)c1)Nc1nccs1 | 18.5% (inactive)
13 | O=C(CSc1nc2ccccc2c(=O)n1-c1cc(Cl)cc(Cl)c1)NC1CCc2ccccc21 (stereo not given) | 11.3% (inactive)
14 | O=C(CSc1nc2ccccc2c(=O)n1-c1ccc(Cl)c(Cl)c1)Nc1cccc2c1CCC2 | -1.69% (inactive)

Same assay, conditions: West Nile virus-infected cells, antiviral inhibition; at 100 µM (top of the series)

Row | Structure (SMILES) | inhibition
15 | O=C(CCCCSc1nc2cccc(F)c2c(=O)n1-c1ccc(Cl)c(F)c1)Nc1ccc2c(c1)CCC2 | -0.34% (inactive)
16 | O=C(CCSc1nc2cccc(F)c2c(=O)n1-c1ccc(Cl)c(F)c1)Nc1ccc2c(c1)CCC2 | 3.09% (inactive)
17 | O=C(CCCCSc1nc2cccc(F)c2c(=O)n1-c1cc(F)c(F)c(F)c1)Nc1ccc2c(c1)CCC2 | -1.19% (inactive)
18 | O=C(CCSc1nc2cccc(F)c2c(=O)n1-c1ccc(F)c(F)c1)Nc1ccc2c(c1)CCC2 | -1.56% (inactive)
19 | O=C(CSc1nc2ccccc2c(=O)n1-c1ccccc1)Nc1ccc2c(c1)OCO2 | 2.32% (inactive)
20 | O=C(CCCSc1nc2cccc(F)c2c(=O)n1-c1ccccc1)Nc1ccc2c(c1)CCC2 | -2.02% (inactive)
21 | O=C(CCSc1nc2cccc(F)c2c(=O)n1-c1ccc(Cl)c(Cl)c1)Nc1ccc2c(c1)CCC2 | -1.05% (inactive)
22 | O=C(CSc1nc2cccc(F)c2c(=O)n1-c1ccccc1)NC1CCCc2ccccc21 (stereo not given) | -0.94% (inactive)
23 | O=C(CSc1nc2cccc(F)c2c(=O)n1-c1ccccc1)Nc1ccc2c(c1)OCO2 | 0.09% (inactive)
24 | O=C(CSc1nc2ccccc2c(=O)n1-c1ccccc1)NC1CCc2ccccc21 (stereo not given) | -0.61% (inactive)
25 | O=C(CCSc1nc2ccccc2c(=O)n1-c1ccc(Cl)c(Cl)c1)Nc1ccc2c(c1)CCC2 | -2.58% (inactive)
26 | O=C(CSc1nc2ccccc2c(=O)n1-c1ccccc1)Nc1nc2ccc([N+](=O)[O-])cc2s1 | -2.6% (inactive)
27 | O=C(CSc1nc2ccccc2c(=O)n1-c1cc(Cl)cc(Cl)c1)NC1Cc2ccccc2C1 | -3.26% (inactive)
28 | O=C(CSc1nc2ccccc2c(=O)n1-c1ccc(F)c(Cl)c1)Nc1cccc2ccccc12 | -1.32% (inactive)
29 | O=C(CSc1nc2ccccc2c(=O)n1-c1ccc(Cl)c(Cl)c1)Nc1ccc2c(c1)OCO2 | -2.42% (inactive)
30 | O=C(CSc1nc2ccccc2c(=O)n1-c1ccccc1)N1CCCCCC1 | -1.69% (inactive)
31 | O=C(CCCCSc1nc2cccc(F)c2c(=O)n1-c1ccc(Cl)c(Cl)c1)Nc1ccc2c(c1)CCC2 | -1.71% (inactive)
32 | O=C(CCCCSc1nc2cccc(F)c2c(=O)n1-c1ccc(F)c(F)c1)Nc1ccc2c(c1)CCC2 | 0.09% (inactive)
33 | Cc1csc(NC(=O)CSc2nc3ccccc3c(=O)n2-c2ccccc2)n1 | -3.31% (inactive)
34 | O=C(CSc1nc2ccccc2c(=O)n1-c1ccccc1)Nc1ccc2ncsc2c1 | -0.65% (inactive)
35 | O=C(CCCCSc1nc2ccccc2c(=O)n1-c1ccccc1)Nc1ccc2c(c1)CCC2 | 18.5% (inactive)
36 | Cc1nc2cc(NC(=O)CSc3nc4ccccc4c(=O)n3-c3ccccc3)ccc2s1 | 2.35% (inactive)
37 | O=C(CSc1nc2ccccc2c(=O)n1-c1ccccc1)Nc1cccc2ccccc12 | -1.05% (inactive)

Row | Structure (SMILES) | inhibition
38 | O=C(CCCSc1nc2ccccc2c(=O)n1-c1ccccc1)Nc1ccc2c(c1)CCC2 | -0.62% (inactive)
39 | O=C(CCSc1nc2cccc(F)c2c(=O)n1-c1ccc(F)c(Br)c1)Nc1ccc2c(c1)CCC2 | -1.52% (inactive)
40 | O=C(CSc1nc2ccccc2c(=O)n1-c1ccccc1)Nc1cccc(-c2ccccc2)c1 | 0.04% (inactive)
41 | O=C(CCCSc1nc2cccc(F)c2c(=O)n1-c1ccc(F)c(F)c1)Nc1ccc2c(c1)CCC2 | -2.48% (inactive)
42 | O=C(CCCSc1nc2cccc(F)c2c(=O)n1-c1ccc(Cl)c(F)c1)Nc1ccc2c(c1)CCC2 | -2.66% (inactive)
43 | O=C(CSc1nc2ccccc2c(=O)n1-c1ccc(Cl)c(Cl)c1)Nc1cccc2ccccc12 | -1.85% (inactive)
44 | O=C(CSc1nc2ccccc2c(=O)n1-c1ccccc1)Nc1cccc2c1CCC2 | 1.83% (inactive)
45 | O=C(CCCSc1nc2cccc(F)c2c(=O)n1-c1ccc(F)c(Br)c1)Nc1ccc2c(c1)CCC2 | -2.67% (inactive)
46 | O=C(CSc1nc2cccc(F)c2c(=O)n1-c1ccc(F)c(Br)c1)Nc1ccc2c(c1)CCC2 | -2.48% (inactive)
47 | O=C(CSc1nc2cccc(F)c2c(=O)n1-c1ccc(Cl)c(Cl)c1)Nc1ccc2c(c1)CCC2 | -2.48% (inactive)
48 | O=C(CSc1nc2cccc(F)c2c(=O)n1-c1ccccc1)NC1Cc2ccccc2C1 | 0.89% (inactive)
49 | O=C(CSc1nc2cccc(F)c2c(=O)n1-c1ccccc1)Nc1cccc2c1CCC2 | -1.2% (inactive)
50 | O=C(CSc1nc2ccccc2c(=O)n1-c1cc(Cl)cc(Cl)c1)Nc1cccc2ccccc12 | -0.85% (inactive)
51 | O=C(CSc1nc2ccccc2c(=O)n1-c1ccccc1)Nc1ncc([N+](=O)[O-])s1 | -1.85% (inactive)
52 | O=C(CSc1nc2cccc(F)c2c(=O)n1-c1ccccc1)Nc1cccc2ccccc12 | -1.94% (inactive)
53 | O=C(CSc1nc2ccccc2c(=O)n1-c1ccccc1)NC1Cc2ccccc2C1 | -2% (inactive)
54 | O=C(CSc1nc2ccccc2c(=O)n1-c1ccccc1)Nc1nc2cc(Cl)ccc2o1 | 8.31% (inactive)
55 | O=C(CCCCSc1nc2cccc(F)c2c(=O)n1-c1ccc(F)c(Br)c1)Nc1ccc2c(c1)CCC2 | -1.81% (inactive)
56 | O=C(CCCCSc1nc2cccc(F)c2c(=O)n1-c1ccccc1)Nc1ccc2c(c1)CCC2 | -1.05% (inactive)
57 | O=C(CSc1nc2ccccc2c(=O)n1-c1ccccc1)Nc1nccs1 | -0.12% (inactive)
58 | O=C(CCCSc1nc2cccc(F)c2c(=O)n1-c1cc(F)c(F)c(F)c1)Nc1ccc2c(c1)CCC2 | -2.94% (inactive)
59 | O=C(CSc1nc2ccccc2c(=O)n1-c1ccccc1)NC1CCCc2ccccc21 (stereo not given) | -2% (inactive)
60 | O=C(CCCSc1nc2cccc(F)c2c(=O)n1-c1ccc(Cl)c(Cl)c1)Nc1ccc2c(c1)CCC2 | -2.38% (inactive)
